{
  "source": "paper PMC5720837",
  "about": "“Identification of a 4-fluorobenzyl L-valinate amide benzoxaborole (AN11736) as a potential development candidate for the treatment of Animal African Trypanosomiasis (AAT)” (Bioorganic & Medicinal Chemistry Letters, 2018)",
  "key": {"[1]": {"tested_on": "Trypanosoma congolense (T. congolense IL-3000 strain), bloodstream form", "test": "Whole cell Alamar Blue assay, T. congolense (72 h in vitro)", "assay_type": "cell-based", "conditions": "Trypanosoma congolense, 72 h, T. congolense IL-3000, 72 h in vitro Alamar Blue assay", "experimental": "(§1) Activity of compounds 1–71 against T. congolense and T. vivax was determined using the whole cell assays as described ^6 and their IC50 values are summarized in Table 1.\n(§2) [6] Assay methods for determination of T. c. and T. v. […] Culture media consisted of complete HMI-9 (IMDM) with 20% bovine serum. To ensure log growth phase, trypanosomes were sub-cultured at appropriate dilutions every 2–3 days. Bloodstream form Trypanosoma vivax (T. vivax) cannot be cultured axenically, therefore trypanosomes (T. vivax STIB719/ILRAD 560 strain) were harvested from a highly parasitemia mouse via cardiac puncture and used directly in the ex vivo drug sensitivity assay on the same day. […] Parasite starting concentrations of 2 × 10^5 (T. c.) and 4 × 10^5 (T. v.) were calculated respectively, using a cell analyzer system or haemo-cytometer, followed by quantification at 536 nm excitation and 588 nm emission wavelengths using a […] reader. Test compounds were prepared as 10 mg/mL DMSO stocks for each assay run. Compounds were assayed in at least three separate, independent test runs and an 11-point dilution curve was used to determine the IC50 values. Data points were averaged to generate sigmoidal dose-response curves and IC50 values were determined using Softmax Pro 5.2 software."}, "[2]": {"tested_on": "Trypanosoma vivax (T. vivax STIB719/ILRAD 560 strain), bloodstream form", "test": "Whole cell Alamar Blue assay, T. vivax (48 h ex vivo)", "assay_type": "cell-based", "conditions": "Trypanosoma vivax; T. vivax STIB719/ILRAD 560, 48 h ex vivo Alamar Blue assay", "experimental": "as §1, §2"}},
  "data": [
    {"compound": "Cc1c(C(=O)N[C@H](C(=O)OCc2ccc(F)cc2)C2CC2)ccc2c1B(O)OC2", "note": "[Compound 28]", "values": [
      {"measurement": "IC50", "setting": "[1]", "result": 0.12, "unit": "nM"},
      {"measurement": "IC50", "setting": "[2]", "result": 0.38, "unit": "nM"}
    ]},
    {"compound": "Cc1c(C(=O)NC2(C(=O)OCc3ccc(F)cc3)CCC2)ccc2c1B(O)OC2", "note": "[Compound 32]", "values": [
      {"measurement": "IC50", "setting": "[1]", "result": 0.45, "unit": "nM"},
      {"measurement": "IC50", "setting": "[2]", "result": 2.5, "unit": "nM"}
    ]},
    {"compound": "Cc1c(C(=O)N[C@H](C(=O)OCc2ccccn2)C(C)C)ccc2c1B(O)OC2", "note": "[Compound 36]", "values": [
      {"measurement": "IC50", "setting": "[1]", "result": 0.26, "unit": "nM"},
      {"measurement": "IC50", "setting": "[2]", "result": 0.14, "unit": "nM"}
    ]},
    {"compound": "Cc1c(C(=O)N[C@H](C(=O)OCc2cccnc2)C(C)C)ccc2c1B(O)OC2", "note": "[Compound 37]", "values": [
      {"measurement": "IC50", "setting": "[1]", "result": 0.78, "unit": "nM"},
      {"measurement": "IC50", "setting": "[2]", "result": 0.5, "unit": "nM"}
    ]},
    {"compound": "Cc1c(C(=O)N[C@H](C(=O)OCc2ccncc2)C(C)C)ccc2c1B(O)OC2", "note": "[Compound 38]", "values": [
      {"measurement": "IC50", "setting": "[1]", "result": 0.68, "unit": "nM"},
      {"measurement": "IC50", "setting": "[2]", "result": 0.31, "unit": "nM"}
    ]},
    {"compound": "Cc1c(C(=O)N[C@H](C(=O)OCc2ncc(F)cn2)C(C)C)ccc2c1B(O)OC2", "note": "[Compound 40]", "values": [
      {"measurement": "IC50", "setting": "[1]", "result": 0.27, "unit": "nM"},
      {"measurement": "IC50", "setting": "[2]", "result": 0.5, "unit": "nM"}
    ]},
    {"compound": "Cc1c(C(=O)N[C@H](C(=O)OCc2nccs2)C(C)C)ccc2c1B(O)OC2", "note": "[Compound 42]", "values": [
      {"measurement": "IC50", "setting": "[1]", "result": 0.2, "unit": "nM"},
      {"measurement": "IC50", "setting": "[2]", "result": 0.19, "unit": "nM"}
    ]},
    {"compound": "Cc1c(C(=O)N[C@H](C(=O)OCc2cscn2)C(C)C)ccc2c1B(O)OC2", "note": "[Compound 43]", "values": [
      {"measurement": "IC50", "setting": "[1]", "result": 0.062, "unit": "nM"}
    ]},
    {"compound": "Cc1c(C(=O)N[C@H](C(=O)OCc2c[nH]cn2)C(C)C)ccc2c1B(O)OC2", "note": "[Compound 44]", "values": [
      {"measurement": "IC50", "setting": "[1]", "result": 5000, "unit": "nM"},
      {"measurement": "IC50", "setting": "[2]", "result": 980, "unit": "nM"}
    ]},
    {"compound": "Cc1c(C(=O)N[C@H](C(=O)OCc2ccc3ccccc3n2)C(C)C)ccc2c1B(O)OC2", "note": "[Compound 45]", "values": [
      {"measurement": "IC50", "setting": "[1]", "result": 0.37, "unit": "nM"},
      {"measurement": "IC50", "setting": "[2]", "result": 0.33, "unit": "nM"}
    ]},
    {"compound": "Cc1c(C(=O)N[C@H](C(=O)OC(C)C)C(C)C)ccc2c1B(O)OC2", "note": "[Compound 56]", "values": [
      {"measurement": "IC50", "setting": "[1]", "result": 5.2, "unit": "nM"},
      {"measurement": "IC50", "setting": "[2]", "result": 14, "unit": "nM"}
    ]},
    {"compound": "Cc1c(C(=O)N[C@H](C(=O)OCC(C)C)C(C)C)ccc2c1B(O)OC2", "note": "[Compound 57]", "values": [
      {"measurement": "IC50", "setting": "[1]", "result": 0.46, "unit": "nM"},
      {"measurement": "IC50", "setting": "[2]", "result": 0.26, "unit": "nM"}
    ]},
    {"compound": "Cc1c(C(=O)N[C@H](C(=O)OC2CCC2)C(C)C)ccc2c1B(O)OC2", "note": "[Compound 58]", "values": [
      {"measurement": "IC50", "setting": "[1]", "result": 0.66, "unit": "nM"},
      {"measurement": "IC50", "setting": "[2]", "result": 0.69, "unit": "nM"}
    ]},
    {"compound": "Cc1c(C(=O)N[C@H](C(=O)OC2CCCC2)C(C)C)ccc2c1B(O)OC2", "note": "[Compound 59]", "values": [
      {"measurement": "IC50", "setting": "[1]", "result": 0.7, "unit": "nM"},
      {"measurement": "IC50", "setting": "[2]", "result": 0.52, "unit": "nM"}
    ]},
    {"compound": "Cc1c(C(=O)N[C@H](C(=O)OC2CCCCC2)C(C)C)ccc2c1B(O)OC2", "note": "[Compound 60]", "values": [
      {"measurement": "IC50", "setting": "[1]", "result": "< 0.005", "unit": "nM"},
      {"measurement": "IC50", "setting": "[2]", "result": 0.78, "unit": "nM"}
    ]},
    {"compound": "Cc1c(C(=O)N[C@H](C(=O)OCC2CCCC2)C(C)C)ccc2c1B(O)OC2", "note": "[Compound 61]", "values": [
      {"measurement": "IC50", "setting": "[1]", "result": 0.36, "unit": "nM"},
      {"measurement": "IC50", "setting": "[2]", "result": 0.21, "unit": "nM"}
    ]},
    {"compound": "Cc1c(C(=O)N[C@H](C(=O)OCCN2CCOCC2)C(C)C)ccc2c1B(O)OC2", "note": "[Compound 64]", "values": [
      {"measurement": "IC50", "setting": "[1]", "result": 2.3, "unit": "nM"},
      {"measurement": "IC50", "setting": "[2]", "result": 0.78, "unit": "nM"}
    ]},
    {"compound": "Cc1c(C(=O)N[C@H](C(=O)OCCN2CCCC2)C(C)C)ccc2c1B(O)OC2", "note": "[Compound 65]", "values": [
      {"measurement": "IC50", "setting": "[1]", "result": 9.4, "unit": "nM"},
      {"measurement": "IC50", "setting": "[2]", "result": 1.2, "unit": "nM"}
    ]},
    {"compound": "Cc1c(C(=O)N[C@H](C(=O)OCC2CCN(C)CC2)C(C)C)ccc2c1B(O)OC2", "note": "[Compound 66]", "values": [
      {"measurement": "IC50", "setting": "[1]", "result": 5.9, "unit": "nM"},
      {"measurement": "IC50", "setting": "[2]", "result": 4.1, "unit": "nM"}
    ]},
    {"compound": "Cc1c(C(=O)N[C@H](C(=O)OCCc2ccc(F)cc2)C(C)C)ccc2c1B(O)OC2", "note": "[Compound 67]", "values": [
      {"measurement": "IC50", "setting": "[1]", "result": 0.43, "unit": "nM"},
      {"measurement": "IC50", "setting": "[2]", "result": 0.79, "unit": "nM"}
    ]},
    {"compound": "Cc1c(C(=O)N[C@H](C(=O)OC2COC2)C(C)C)ccc2c1B(O)OC2", "note": "[Compound 68]", "values": [
      {"measurement": "IC50", "setting": "[1]", "result": 1.8, "unit": "nM"},
      {"measurement": "IC50", "setting": "[2]", "result": 37, "unit": "nM"}
    ]}
  ]
}
